Results from patent US12257283B2 (priority 2019, dated 2025).
Read-outs that look alike come from different tables or passages of the source.

Columns and labels:
[1] = target: chemokine receptors CCR2/CCR5; assay type: biochemical; settings: inhibition of chemokine receptors CCR2/CCR5; read-out: Potency EC50
Source text: Table 1 illustrates the potencies of several peptides of the invention to inhibit chemokine receptors CCR2/CCR5. These receptor-active peptides (Receptides, abbreviated as RAP's) represent a novel, safe and non-addictive pharmacological intervention for substance abuse disorders by normalizing the neurobiology of addiction to suppress drug-seeking behaviors, reduce psychostimulant (cocaine, methamphetamine) activation and locomotion, and inhibit consumption of alcohol, other drugs of abuse and substance abuse in general. They may also treat depression and anxiety as those commonly occur in substance abuse. […] Decades-old treatments (methadone, buprenorphine etc.) require extended use, suffer from high recidivism, are only partly effective and are clearly inadequate. New treatments with no abuse liability, that blunt drug-seeking, dependence, and facilitate recovery and withdrawal are a priority need.

cocaine reward = settings: literature data, cited from earlier work
[2] = tested on: cocaine locomotor activation; settings: literature data, cited from earlier work
cocaine taking = settings: literature data; cited from earlier work
CCL2, CCL3 = tested on: CCL2, CCL3
Source text: Because opioids are used in the management of pain conditions that contribute to OUD, we determined the efficacy of a small peptide chemokine receptor antagonist RAP-103 (all-D-TTNYT, SEQ ID #1, Table 1), sometimes called RAP-103 or R103) to reverse opioid receptor analgesic tolerance and block pain as a test of its ability to block-drug seeking behaviors. Painful diabetic neuropathy (PDN) is a common complication of diabetes which adversely affects patients' daily life, often involves opioid use, which creates an addiction risk. […] To test the hypothesis, we first used behavioral and molecular/cellular approaches to explore chronic pain development and inflammatory reaction in Streptozotocin (STZ) induced diabetic rats. […] CCL2 and CCL3 are two chemokines well known in mediating immune cell trafficking and immune response in the context of neuropathic pain.
(§1) Rats were fasted overnight and received a single intraperitoneal injection of streptozotocin (60 mg/kg, Sigma-Aldrich) in citrate buffer (pH 4.5) to induce type I diabetes. The induction of diabetes was confirmed 72 h after streptozotocin injection by measurement of blood glucose levels using Contour® blood glucose diagnostic kit (Bayer HealthCare, Canada). Body weight and blood glucose levels were measured before and 3 days after streptozotocin injection, once a week for three weeks after diabetes induction. Only rats having blood glucose concentration consistently higher than 300 mg/dl were used for the present study.

[3] = tested on: cocaine induced locomotor behavior; settings: rats, 0.001, 0.01, 0.03 mg/kg, p.o., 30 min before cocaine 10 mgs/Kg
Protocol: Locomotor activity (ambulation+stereotypy) induced by cocaine and the effect of RAP-103 was assessed using a Digiscan DMicro system. Following a 60-min habituation in activity chambers, rats were pretreated with RAP-103 (0.03, 0.01, 0.001 mgs/Kg) or vehicle 30 min before cocaine (10 mgs/Kg) or vehicle and activity was measured for 120 min. Differences between individual groups were determined with a Bonferroni post-hoc test. Statistical significance was set at p<0.05.

MOR-dependent rats = settings: 0.5 mg/kg, naloxone 3 mg/kg SC on day 7, quantified for 60 min
Protocol: Opioid tolerance during chronic exposure requires increasing opioid doses to maintain analgesic efficacy. Physical dependence also develops during chronic opioid exposure and, upon discontinuation of opioid intake, presents as a withdrawal syndrome that triggers opioid relapse. We tested the effects of RAP-103 (0.5 mg/kg) on naloxone-precipitated withdrawal signs in MOR-dependent rats. To induce physical dependence we implanted opioid (heroine) containing pellets. On day 7 rats received naloxone (3 mg/kg, SC) with or without added RAP-103 and the withdrawal signs of wet dog shakes and eye blinking were quantified for 60 min.

[4] = tested on: streptozotocin (STZ) induced diabetic rats
Protocol: as §1, with “study. […]” for “study.”
(§2) Tactile allodynia Mechanical sensitivity was assessed using calibrated von Frey hairs (7). Animals were placed in Plexiglas boxes on an elevated metal mesh floor and allowed 60 min for habituation before testing. A series of von Frey filaments with logarithmically incrementing stiffness was applied perpendicular to the mid-plantar region of the hind paw. The 50% paw withdrawal threshold was determined using Dixon's up-down method. Withdrawal thresholds of both paws were averaged as one single value per animal. Assessment on the effects of RAP103 on mechanical and cold allodynia was performed between 2-4 hours following the drug administration. […] All data were presented as means±SEM. Statistical analysis was performed by two-way ANOVA followed by Bonferroni post-tests. The criterion for statistical significance was P<0.05.

[5] = tested on: opioid self-administration; settings: rats, MOR 0.25 mg/kg/inf
Source text: Rats were surgically prepared to have indwelling catheters prior to self-administration testing. To begin each session, house lights were turned on and two retractable levers extended into the chamber. […] A 20-s timeout period will follow each infusion to limit possibility of overdose. […] The dependent variable measured will be the number of infusions earned by the end of the session and defined as the breakpoint. Total cumulative responses made by the rat on the active lever during each session will also be recorded. Once rats reach criteria for stable PR responding, which is defined as 3 consecutive days of responding without upward or downward variance (<20% change from mean number of reinforcers earned for 3 consecutive days), R103 (0.02, 0.1, and 0.5 mg/kg) will be administered 15 min before daily SA sessions to assess effects on breaking point and to obtain dose-effect data for R103. A repeated-measures 2-way ANOVA (R103 treatment, sex) between-subjects design followed by a Bonferroni test was used.

[6] = tested on: STZ induced diabetic rats; settings: oral administration
Protocol: as §1
The treatment lasted for 8 days Note, n=5 for H2O and n=7 for RAP-103/each dose.
as §2, with “Statistical analysis was performed by two-way ANOVA followed by Bonferroni post-tests. The criterion for statistical significance was P<0.05.” left out

[7] = STZ diabetic rats, oral administration for 7 days

STNYT [SEQ ID No.: 3]
EC50 [1]: 3 pM

COc1ccc(C2(O)CCC(N3CC[C@@H](NC(=O)CNC(=O)c4cccc(C(F)(F)F)c4)C3)CC2)cn1 (some centres unmarked) [INCB 3284]
cocaine reward / conditioned place preference (CPP) (cocaine reward): prevented psychostimulant-induced CPP

Maraviroc
cocaine reward / conditioned place preference (CPP) (cocaine reward): reduces rewarding | locomotor activation produced by cocaine [2]: reduces

c1cc(CN2CCCNCCNCCCNCC2)ccc1CN1CCCNCCNCCCNCC1 [AMD3100, Plerixafor]
cocaine taking in rat self-administration assays (cocaine taking): inhibits | cocaine reward / conditioned place preference (CPP) (cocaine reward): inhibits cocaine reward | cocaine reward / conditioned place preference (CPP) (cocaine reward; listed as AMD 3100): inhibits conditioned place preference (CPP) | locomotor activation produced by an acute cocaine injection ([2]; 5, 10 mg/kg pretreatment): reduced locomotor activation | locomotor activation produced by cocaine [2]: inhibits

TTNYT [SEQ ID No.: 1, all-D-TTNYT]
expression of chemokines and cytokines (CCL2, CCL3; [7]): inhibited expression of chemokines and cytokines | inflammation: CCL2 in the sciatic nerves (CCL2, CCL3; STZ rats, 0.5 mg/kg, for 7 days, p.o., FIG. 3A): significantly inhibited inflammation | inflammation: CCL3 in the sciatic nerves (CCL2, CCL3; STZ rats, 0.5 mg/kg, for 7 days, p.o., FIG. 3B): significantly inhibited inflammation | cocaine induced locomotor behavior (locomotor activity counts) ([3]; listed as RAP103): inhibited psychostimulant cocaine induced locomotor behavior | cocaine induced locomotor behavior (locomotor activity counts) ([3]; listed as RAP-103): blocks the locomotor inducing effects of cocaine | naloxone precipitated withdrawal signs (wet dog shakes and eye blink) (MOR-dependent rats; listed as RAP103): significantly inhibited naloxone precipitated withdrawal signs | naloxone precipitated withdrawal signs (wet dog shakes and eye blink) (MOR-dependent rats; listed as RAP-103): blocks naloxone-precipitated withdrawal signs | neuropathic pain [4, 7]: reduced neuropathic pain | mechanical allodynia ([4]; STZ induced diabetic rats, oral administration): reversed mechanical allodynia | established hypersensitivity ([4]; STZ rats, 0.5-0.02 mg/Kg b.w., daily, for 7 days): complete reversal of established hypersensitivity | opioid self-administration by lever press for drug infusions [5]: significantly inhibited opioid self-administration | motivation to work for reinforcer (self-administer an opioid), progressive-ratio ([5]; R103 0.02, 0.1, and 0.5 mg/kg 15 min before sessions): significantly reduced | cold allodynia [6]: reversed cold allodynia

SSTYR [SEQ ID No.: 2]
EC50 [1]: 1 pM
